According to ChEMBL document CHEMBL3603814, “Heterocyclic chalcone activators of nuclear factor (erythroid-derived 2)-like 2 (Nrf2) with improved in vivo efficacy” (Bioorg Med Chem, 2015):
Calls of active or inactive are those of the source. The calls are words filed in the database; no cut-off is given here.

Assays:
[1] = target: T1, Nuclear factor erythroid 2-related factor 2 (Homo sapiens) (UniProt Q16236); assay: Activation of Nrf2 in human BEAS2B cells assessed as increase in HO1 gene expression at 5 uM incubated for 6 hrs by qPCR method; assay type: cell-based
T1 sequence (whole entry): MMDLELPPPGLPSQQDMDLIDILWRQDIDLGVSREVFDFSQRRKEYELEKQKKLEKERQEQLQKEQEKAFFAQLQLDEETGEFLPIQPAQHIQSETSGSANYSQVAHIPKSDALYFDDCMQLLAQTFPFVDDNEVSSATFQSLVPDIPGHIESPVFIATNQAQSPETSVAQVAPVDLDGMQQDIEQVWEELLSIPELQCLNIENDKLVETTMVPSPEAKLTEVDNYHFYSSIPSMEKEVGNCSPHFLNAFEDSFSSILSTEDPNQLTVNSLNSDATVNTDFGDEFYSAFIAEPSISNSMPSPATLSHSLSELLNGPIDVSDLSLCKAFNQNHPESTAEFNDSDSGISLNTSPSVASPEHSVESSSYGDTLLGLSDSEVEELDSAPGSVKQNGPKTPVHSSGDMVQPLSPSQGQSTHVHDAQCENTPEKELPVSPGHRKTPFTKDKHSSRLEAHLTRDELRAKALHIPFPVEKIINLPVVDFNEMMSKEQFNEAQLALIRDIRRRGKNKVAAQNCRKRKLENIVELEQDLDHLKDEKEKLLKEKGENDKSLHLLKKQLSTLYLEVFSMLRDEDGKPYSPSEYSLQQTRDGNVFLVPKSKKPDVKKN

[2] = target: T1, Nuclear factor erythroid 2-related factor 2 (Homo sapiens); assay: Activation of Nrf2 in human BEAS2B cells assessed as increase in HO1 gene expression at 10 uM incubated for 6 hrs by qPCR method; assay type: cell-based
Mus musculus [3] = assay: Increase in HO-1 gene expression in mouse lung at 200 mg/kg, po measured 6 hrs post dose by qPCR method; assay type: functional, organism-based
Mus musculus [4] = assay: Increase in HO-1 gene expression in mouse lung at 400 mg/kg, po measured 6 hrs post dose by qPCR method; assay type: functional, organism-based
Mus musculus [5] = assay: Increase in HO-1 protein expression in mouse lung at 200 mg/kg, po measured 6 hrs post dose by ELISA method; assay type: functional, organism-based
Mus musculus [6] = assay: Increase in HO-1 protein expression in mouse lung at 400 mg/kg, po measured 6 hrs post dose by ELISA method; assay type: functional, organism-based

## COc1ccncc1C(=O)/C=C/c1ccccc1C(F)(F)F
[1]
  Activity: Active

## COc1ccccc1C(=O)/C=C/c1ccncc1C(F)(F)F
[1]
  Activity: Active

## COC(=O)[C@]12CCC(C)(C)C[C@H]1[C@H]1C(=O)C=C3[C@@]4(C)C=C(C#N)C(=O)C(C)(C)[C@@H]4CC[C@@]3(C)[C@]1(C)CC2
[2]
  Activity: Active

## COc1ccccc1C(=O)/C=C/c1ccccc1C(F)(F)F
[1]
  Activity: Active
Mus musculus [3]
  Activity: Active
Mus musculus [4]
  Activity: Active
Mus musculus [5]
  Activity: Active
Mus musculus [6]
  Activity: Active

## COc1ccccc1C(=O)/C=C/c1ncccc1C(F)(F)F
[1]
  Activity: Active
Mus musculus [3]
  Activity: Active
Mus musculus [4]
  Activity: Active
Mus musculus [6]
  Activity: Active

## COc1ccccc1C(=O)/C=C/c1cnccc1C(F)(F)F
[1]
  Activity: Active

## COc1cnccc1C(=O)/C=C/c1ccccc1C(F)(F)F
[1]
  Activity: Active
